Test results: ChEMBL document CHEMBL1150554, “Synthesis and activity of spiroisoindolines as novel noncompetitive NMDA antagonists” (Bioorg Med Chem Lett, 1993)
Calls of active or inactive are those of the source. The calls are words filed in the database; no cut-off is given here.

Experiments:
Glutamate NMDA receptor = test: Inhibition of [3H]-TCP binding to NMDA receptors on rat brain membranes.; format: cell membranes, Membrane
Gerbillinae [1] = test: Tested for the percent reduction in CA1 damage of the hippocampus (gerbil ischemia-induced cell death) after 60 mg/kg intraperitoneal administration,45 min pre and 5 min post ischemia event; format: functional
Mus musculus [2] = test: Compound was tested up to a dose of 80mg/Kg, ip; did not produce effects such as body rolling, ataxia and hyperlocomotion; format: functional, organism-based
Rattus norvegicus = test: Tested […] for the NMDA-induced cytotoxicity at a concentration of 100 uM in rat cortical cell cultures; format: functional
Mus musculus [3] = test: Tested in vivo for the antagonistic activity after 0.4 ug/mouse of NMDA intracerebral administration in mice; format: functional; conditions: central
Mus musculus [4] = test: Compound was tested at a dose of 20-40mg/Kg, ip; produced effects such as body rolling, ataxia and hyperlocomotion; format: functional, organism-based
Gerbillinae [5] = test: Tested for the percent protection from CA1 damage of the hippocampus (gerbil ischemia-induced cell death) after 1 mg/kg intraperitoneal administration, 45 min pre and 5 min post ischemia event; format: functional
Mus musculus [6] = test: Compound was tested at a dose of 0.5-1mg/Kg, ip; produced effects such as body rolling, ataxia and hyperlocomotion; format: functional, organism-based

Compound | IC50 (Glutamate NMDA receptor) | other results
CN1Cc2ccc(O)cc2C12CCCCc1ccccc12 (centres undefined) | 160 nM | –
CN1Cc2ccccc2C12CCCc1sccc12.O=C(O)C(=O)O (centres undefined) | 490 nM | Reduction (Gerbillinae [1]): 84%; Activity (Mus musculus [2]): inactive; Protection (Rattus norvegicus): 68%; ED50 (Mus musculus [3]): 32 mg/kg
CCCN1Cc2ccccc2C12CCCc1ccccc12 (centres undefined) | 1600 nM | –
COc1cccc2c1CCC21NCc2ccccc21 (centres undefined) | 5000 nM | –
CN1Cc2ccccc2C12CCCCc1ccccc12 (centres undefined) | 1700 nM | –
Oc1cccc2c1CCC21NCc2ccccc21 (centres undefined) | 730 nM | –
CN1Cc2ccc(O)cc2C12CCCc1ccccc12 (centres undefined) | 200 nM | –
c1ccc2c(c1)CCCC21NCc2ccccc21 (centres undefined) | 890 nM | –
c1ccc2c(c1)CCC21NCc2ccccc21 (centres undefined) | 980 nM | Activity (Mus musculus [4]): Active
CN1Cc2ccccc2C12CCCc1ccccc12 (centres undefined) | 1500 nM | –
CCCN1Cc2ccccc2C12CCc1ccccc12 (centres undefined) | 440 nM | –
C[C@]12N[C@H](Cc3ccccc31)c1ccccc12.Cl [DIZOCILPINE HYDROCHLORIDE] | – | Protection (Gerbillinae [5]): 42%; Activity (Mus musculus [6]): Active
CCCN1Cc2ccccc2C12CCCc1sccc12 (centres undefined) | 1500 nM | –
CCCN1Cc2ccc(OC)cc2C12CCCCc1ccccc12 (centres undefined) | 17000 nM | –
COc1ccc2c(c1)C1(CCCc3ccccc31)NC2 (centres undefined) | 4000 nM | –
CN1Cc2ccccc2C12CCc1ccccc12 (centres undefined) | 65 nM | –
COc1ccc2c(c1)C1(CCCc3ccccc31)N(C)C2 (centres undefined) | 790 nM | –
c1ccc2c(c1)CCCCC21NCc2ccccc21 (centres undefined) | 1700 nM | –
COc1ccc2c(c1)C1(CCCCc3ccccc31)NC2 (centres undefined) | 4800 nM | –
CCCN1Cc2ccccc2C12CCCCc1ccccc12 (centres undefined) | 17000 nM | –
Oc1ccc2c(c1)C1(CCCc3ccccc31)NC2 (centres undefined) | 240 nM | –
COc1ccc2c(c1)C1(CCCCc3ccccc31)N(C)C2 (centres undefined) | 2700 nM | –
c1ccc2c(c1)CNC21CCCc2sccc21 (centres undefined) | 600 nM | –
